Assay results: ChEMBL document CHEMBL1201862, “PubChem BioAssay data set” (2004)
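How tested: cells in 96-well plates exposed to compound for 48 hours at five concentrations. At the GI50, growth is halved.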 Active and inactive are the calls of the source. Rule as the data show it: active = GI50 up to about 1.1 µM and inactive = higher.

Experiments:
Test in all cases: growth of human tumour cells (NCI), 48 h
A498 = tested on: A498
A549 = tested on: A549
BT-549 = tested on: BT-549
HCT-116 = tested on: HCT-116
HCT-15 = tested on: HCT-15
HT-29 = tested on: HT-29
IGROV-1 = tested on: IGROV-1
MDA-MB-231 = tested on: MDA-MB-231
NCI-H226 = tested on: NCI-H226
SF-268 = tested on: SF-268
SK-MEL-28 = tested on: SK-MEL-28
SK-MEL-5 = tested on: SK-MEL-5
SK-OV-3 = tested on: SK-OV-3
SNB-19 = tested on: SNB-19
SR = tested on: SR
T47D = tested on: T47D
TK-10 = tested on: TK-10
U-251 = tested on: U-251

Row | SMILES | GI50 (A498) | GI50 (A549) | GI50 (BT-549) | GI50 (HCT-116) | GI50 (HCT-15) [µM] | GI50 (HT-29) | GI50 (IGROV-1) | GI50 (MDA-MB-231) | GI50 (NCI-H226) | GI50 (SF-268) | GI50 (SK-MEL-28) | GI50 (SK-MEL-5) | GI50 (SK-OV-3) | GI50 (SNB-19) | GI50 (SR) | GI50 (T47D) | GI50 (TK-10) | GI50 (U-251)
1 | C=C1CC(COc2ccc3c(C)c(C)c(=O)oc3c2C)(c2ccccc2)OC1=O (stereo not drawn) | 2.7 µM (inactive) | 11.7 µM (inactive) | 1.63 µM (inactive) | 1.41 µM (inactive) | 1.88 | 1.53 µM (inactive) | 1.73 µM (inactive) | 2.72 µM (inactive) | 2.27 µM (inactive) | 2.64 µM (inactive) | 2.07 µM (inactive) | 1.59 µM (inactive) | 3.28 µM (inactive) | 13.5 µM (inactive) | 1.46 µM (inactive) | 2.07 µM (inactive) | 1.45 µM (inactive) | 7.64 µM (inactive)
2 | C=C(C=O)c1c2c(nc3ccccc13)C(=O)c1ccccc1C2=O | 1.46 µM (inactive) | 1.86 µM (inactive) | 1.82 µM (inactive) | 0.619 µM (active) | 0.298 | 0.47 µM (active) | 0.252 µM (active) | 1.18 µM (inactive) | 0.966 µM (active) | 0.668 µM (active) | 0.684 µM (active) | 0.162 µM (active) | 2.9 µM (inactive) | 1.64 µM (inactive) | 0.24 µM (active) | 0.646 µM (active) | 1.02 µM (active) | 0.482 µM (active)
3 | COc1cc(N(CCC#N)CCC#N)ccc1/C=C1\SC(=S)NC1=O | > 100 µM (inactive) | > 100 µM (inactive) | > 100 µM (inactive) | > 100 µM (inactive) | > 100 | > 100 µM (inactive) | > 100 µM (inactive) | > 100 µM (inactive) | > 100 µM (inactive) | > 100 µM (inactive) | > 100 µM (inactive) | > 100 µM (inactive) | > 100 µM (inactive) | > 100 µM (inactive) | > 100 µM (inactive) | > 100 µM (inactive) | > 100 µM (inactive) | > 100 µM (inactive)
4 | CC(C)(Br)C(Br)CC/C(=C/CBr)CBr.CC(C)(Br)C(Br)CC/C(=C\CBr)CBr (stereo not drawn) | 20.9 µM (inactive) | 13.9 µM (inactive) | 2.45 µM (inactive) | 2.13 µM (inactive) | 2.51 | 3.02 µM (inactive) | 3.08 µM (inactive) | 12 µM (inactive) | 14.2 µM (inactive) | 2.21 µM (inactive) | 2.27 µM (inactive) | 4.5 µM (inactive) | 21.4 µM (inactive) | 14.4 µM (inactive) | 0.783 µM (active) | 2.76 µM (inactive) | 8.77 µM (inactive) | 3.05 µM (inactive)
5 | COc1ccc2oc(=O)c(CC=C(C)C)c(O)c2c1C | > 100 µM (inactive) | > 100 µM (inactive) | > 100 µM (inactive) | > 100 µM (inactive) | > 100 | > 100 µM (inactive) | > 100 µM (inactive) | > 100 µM (inactive) | > 100 µM (inactive) | > 100 µM (inactive) | > 100 µM (inactive) | > 100 µM (inactive) | > 100 µM (inactive) | > 100 µM (inactive) | > 100 µM (inactive) | > 100 µM (inactive) | > 100 µM (inactive) | > 100 µM (inactive)
6 | Cc1ccc(N2C(=O)C(O)=C(C(=O)C(C)(C)C)C2c2ccc([N+](=O)[O-])cc2)cc1 (stereo not drawn) | 29.3 µM (inactive) | 23.6 µM (inactive) | 11.1 µM (inactive) | 16 µM (inactive) | 16.2 | 17.6 µM (inactive) | 11.5 µM (inactive) | 18.9 µM (inactive) | 19.1 µM (inactive) | 13 µM (inactive) | 21.5 µM (inactive) | 15.8 µM (inactive) | 20.8 µM (inactive) | 19.4 µM (inactive) | 7.53 µM (inactive) | 18.8 µM (inactive) | 36.2 µM (inactive) | 26.6 µM (inactive)
7 | FC(F)(F)c1ccccc1C1SCC2=Nc3ccccc3CN21 (stereo not drawn) | 17.1 µM (inactive) | 14.5 µM (inactive) | 19.3 µM (inactive) | 11.1 µM (inactive) | 14.1 | 16.4 µM (inactive) | 16.1 µM (inactive) | 23.5 µM (inactive) | 12.6 µM (inactive) | 15.1 µM (inactive) | 19.3 µM (inactive) | 14.7 µM (inactive) | 18.6 µM (inactive) | 10.1 µM (inactive) | 21.2 µM (inactive) | 16.8 µM (inactive) | 14.4 µM (inactive) | 28.4 µM (inactive)
8 | O=c1[nH]c2cc(C(F)(F)F)ccc2nc1CBr | 18.4 µM (inactive) | 11 µM (inactive) | 13.1 µM (inactive) | 13.5 µM (inactive) | 11.4 | 11.4 µM (inactive) | 10.6 µM (inactive) | 13.5 µM (inactive) | 7.87 µM (inactive) | 21.3 µM (inactive) | 15.1 µM (inactive) | 9.59 µM (inactive) | 18.5 µM (inactive) | 15.5 µM (inactive) | 4.85 µM (inactive) | 16 µM (inactive) | 13.9 µM (inactive) | 9.48 µM (inactive)
9 | Cn1c2ccccc2c2ccc3c(c21)C(=O)c1ccccc1C3=O | > 10 µM (inactive) | 24.7 µM (inactive) | 21.1 µM (inactive) | 17.3 µM (inactive) | 15.1 | 16.9 µM (inactive) | 13.8 µM (inactive) | 19.5 µM (inactive) | 30.1 µM (inactive) | 18.7 µM (inactive) | 14.6 µM (inactive) | 13.2 µM (inactive) | 15.8 µM (inactive) | 37.8 µM (inactive) | 3.29 µM (inactive) | 11.7 µM (inactive) | 14.4 µM (inactive) | 16.4 µM (inactive)
10 | COc1ccc(-c2oc3c(OC)c(OC)c(OC)c(O)c3c(=O)c2OC)cc1OC | 19.9 µM (inactive) | 27.5 µM (inactive) | 34.4 µM (inactive) | 24.9 µM (inactive) | 14 | 23.6 µM (inactive) | 3.15 µM (inactive) | 22.2 µM (inactive) | 20.7 µM (inactive) | 9.33 µM (inactive) | 32.2 µM (inactive) | 9.71 µM (inactive) | 8.2 µM (inactive) | 63.4 µM (inactive) | 7.87 µM (inactive) | 2.86 µM (inactive) | 36.2 µM (inactive) | 27.7 µM (inactive)
11 | O=C(CCN1CCCC1)Nc1ccc2sc3ccccc3c(=O)c2n1 | 17.8 µM (inactive) | 12.3 µM (inactive) | 13.6 µM (inactive) | 11.5 µM (inactive) | 11.5 | 4.35 µM (inactive) | 15.2 µM (inactive) | 13.3 µM (inactive) | 13.8 µM (inactive) | 17.2 µM (inactive) | 14.3 µM (inactive) | 11.8 µM (inactive) | 7.23 µM (inactive) | 13.1 µM (inactive) | 8.89 µM (inactive) | 19.2 µM (inactive) | > 10 µM (inactive) | 12.9 µM (inactive)
12 | CC(=O)N1c2ccccc2C23CCN(C)CC4C(C)OCC(C4CC2=O)C13 (stereo not drawn) | > 100 µM (inactive) | > 100 µM (inactive) | > 100 µM (inactive) | > 100 µM (inactive) | > 100 | > 100 µM (inactive) | > 100 µM (inactive) | > 100 µM (inactive) | > 100 µM (inactive) | > 100 µM (inactive) | > 100 µM (inactive) | > 100 µM (inactive) | > 100 µM (inactive) | > 100 µM (inactive) | > 100 µM (inactive) | > 100 µM (inactive) | > 100 µM (inactive) | > 100 µM (inactive)
13 | OCC12C3C4C5C3C1C5C42 (stereo not drawn) | > 100 µM (inactive) | > 100 µM (inactive) | > 100 µM (inactive) | > 100 µM (inactive) | > 100 | > 100 µM (inactive) | 47.3 µM (inactive) | > 100 µM (inactive) | > 100 µM (inactive) | > 100 µM (inactive) | > 100 µM (inactive) | > 100 µM (inactive) | > 100 µM (inactive) | > 100 µM (inactive) | > 100 µM (inactive) | > 100 µM (inactive) | > 100 µM (inactive) | > 100 µM (inactive)
14 | COC(=O)CN1SC2(SC13C(C)(C)C(=O)C3(C)C)C(C)(C)C(=O)C2(C)C | 30 µM (inactive) | 51.2 µM (inactive) | 27.8 µM (inactive) | 46 µM (inactive) | > 100 | > 100 µM (inactive) | 89.5 µM (inactive) | 77.3 µM (inactive) | 22.1 µM (inactive) | 36.1 µM (inactive) | > 100 µM (inactive) | 35.2 µM (inactive) | 41 µM (inactive) | > 100 µM (inactive) | 81.8 µM (inactive) | > 100 µM (inactive) | > 100 µM (inactive) | 94.4 µM (inactive)
15 | O=C1C=CC2(O[C@H](C3CCCCC3)[C@@H](C3CCCCC3)O2)C(SC(=O)c2ccccc2)C1 (stereo partly drawn) | 8.41 µM (inactive) | 6.07 µM (inactive) | 3.1 µM (inactive) | 0.918 µM (active) | 3.21 | 1.36 µM (inactive) | 1.75 µM (inactive) | 1.39 µM (inactive) | 0.82 µM (active) | 2.62 µM (inactive) | 0.347 µM (active) | 1.77 µM (inactive) | 12.9 µM (inactive) | 1.44 µM (inactive) | 0.925 µM (active) | 0.975 µM (active) | 2.26 µM (inactive) | 1.91 µM (inactive)
16 | Cc1c(S(=O)(=O)O)ccc(/N=N/c2c(O)c(C(=O)O)cc3ccccc23)c1Cl | > 100 µM (inactive) | > 100 µM (inactive) | > 100 µM (inactive) | > 100 µM (inactive) | > 100 | > 100 µM (inactive) | > 100 µM (inactive) | > 49.8 µM (inactive) | > 100 µM (inactive) | > 100 µM (inactive) | > 100 µM (inactive) | > 100 µM (inactive) | > 100 µM (inactive) | > 100 µM (inactive) | > 50.2 µM (inactive) | > 100 µM (inactive) | > 100 µM (inactive) | > 92.5 µM (inactive)
